From ChEMBL document CHEMBL4811216, “Chemotherapy for human schistosomiasis: how far have we come? What's new? Where do we go from here?” (RSC Med Chem, 2020)

Assays:
Schistosoma mansoni [1] = assay: Antischistosomal activity against Schistosoma mansoni infected in mouse assessed as worm burden reduction at 200 mg/kg, po administered as single dose and measured after 17 to 21 days relative to control; assay type: functional; parameters: scale not given: the % may be the effect or the level left; details: time 17-21 day
Schistosoma japonicum [2] = assay: Antischistosomal activity against juvenile Schistosoma japonicum assessed as reduction in worm vitality at 25 uM incubated for 72 hrs relative to control; assay type: functional; parameters: scale not given: the % may be the effect or the level left
[3] = Cmax in C57BL/6 mouse at 20 mg/kg, po measured after 3 hrs; assay type: ADME, organism-based; parameters: route oral, dose 20 mg/kg, time 3 hrs; details: in vivo
[4] = Half life in C57BL/6 mouse at 20 mg/kg, po; assay type: ADME, organism-based; details: in vivo
Schistosoma mansoni [5] = assay: Antischistosomal activity against Schistosoma mansoni incubated for 72 hrs by microscopic method; assay type: functional, organism-based
Schistosoma mansoni [6] = assay: Antischistosomal activity against adult Schistosoma mansoni infected in NMRI mouse assessed as worm burden reduction at 400 mg/kg, po administered as single dose and measured at 21 days post treatment relative to control; assay type: functional; parameters: scale not given: the % may be the effect or the level left; details: time 21 day
[7] = Oral bioavailability in C57BL/6 mouse at 20 mg/kg; assay type: ADME, organism-based; details: in vivo
[8] = Volume of distribution in C57BL/6 mouse at 20 mg/kg, po; assay type: ADME, organism-based; details: in vivo
Schistosoma mansoni [9] = assay: Antischistosomal activity against Schistosoma mansoni LE assessed as worm mortality at 100 ug/ml measured after 144 hrs by inverted microscopic method relative to control; assay type: functional; details: dose 100 µg/ml
Schistosoma mansoni [10] = assay: Antischistosomal activity against Schistosoma mansoni LE assessed as worm mortality at 100 ug/ml measured after 72 hrs by inverted microscopic method relative to control; assay type: functional
Schistosoma mansoni [11] = assay: Antischistosomal activity against adult Schistosoma mansoni LE assessed as reduction in worm vitality measured every 24 hrs by inverted microscopy; assay type: functional, organism-based
Schistosoma mansoni [12] = assay: Antischistosomal activity against Schistosoma mansoni LE schistosomula assessed as reduction in worm vitality measured every 24 hrs by inverted microscopy; assay type: functional, organism-based
Schistosoma mansoni [13] = assay: Antischistosomal activity against adult Schistosoma mansoni LE assessed as worm mortality at 100 ug/ml incubated for 72 hrs by inverted microscopic method relative to control; assay type: functional
Schistosoma mansoni [14] = assay: Antischistosomal activity against Schistosoma mansoni LE assessed as worm mortality at 20 uM incubated for 72 hrs by microscopic method relative to control; assay type: functional
Schistosoma mansoni [15] = assay: Antischistosomal activity against Schistosoma mansoni LE assessed as worm vitality at 20 uM incubated for 24 hrs by microscopic method relative to control; assay type: functional
Schistosoma mansoni [16] = assay: Antischistosomal activity against Schistosoma mansoni Puerto Rican schistosomula assessed as effect on worm phenotype measured after 72 hrs; assay type: functional, organism-based
Schistosoma mansoni [17] = assay: Antischistosomal activity against juvenile Schistosoma mansoni Puerto Rican incubated for 72 hrs by microscopic method; assay type: functional, organism-based
Schistosoma mansoni [18] = assay: Antischistosomal activity against adult Schistosoma mansoni Puerto Rican incubated for 72 hrs by microscopic method; assay type: functional, organism-based
Schistosoma mansoni [19] = assay: Antischistosomal activity against Schistosoma mansoni Puerto Rican schistosomula assessed as effect on worm motility measured after 72 hrs; assay type: functional, organism-based
Schistosoma mansoni [20] = assay: Antischistosomal activity against Schistosoma mansoni NRMI schistosomula incubated for 24 hrs; assay type: functional
Schistosoma mansoni [21] = assay: Antischistosomal activity against Schistosoma mansoni infected in Swiss albino mouse assessed as reduction in intestinal tissue egg burden at 20 mg/kg, po administered for 5 days relative to control; assay type: functional; parameters: scale not given: the % may be the effect or the level left; details: time 5 day
Schistosoma mansoni [22] = assay: Antischistosomal activity against Schistosoma mansoni infected in Swiss albino mouse assessed as reduction in worm burden at 20 mg/kg, po administered for 5 days relative to control; assay type: functional; parameters: scale not given: the % may be the effect or the level left; details: time 5 day
Schistosoma mansoni [23] = assay: Antischistosomal activity against female Schistosoma mansoni assessed as worm killing effect at 100 uM measured after 24 hrs by phase-contrast microscopy relative to control; assay type: functional
Schistosoma mansoni [24] = assay: Potentiation of praziquantel-induced antischistosomal activity against Schistosoma mansoni infected in Swiss albino mouse assessed as worm burden at 20 mg/kg, po administered for 5 days (reference value: 60%); assay type: functional; details: time 5 day
Schistosoma mansoni [25] = assay: Antischistosomal activity against male Schistosoma mansoni assessed as worm killing effect at 100 uM measured after 24 hrs by phase-contrast microscopy relative to control; assay type: functional
Schistosoma mansoni [26] = assay: Antischistosomal activity against Schistosoma mansoni assessed as worm killing effect at 100 uM measured after 24 hrs by phase-contrast microscopy relative to control; assay type: functional
Schistosoma mansoni [27] = assay: Potentiation of praziquantel-induced antischistosomal activity against Schistosoma mansoni infected in Swiss albino mouse assessed as intestinal egg burden at 20 mg/kg, po administered for 5 days (reference value: 67%); assay type: functional; details: time 5 day
Plasmodium falciparum [28] = assay: Antiplasmodial activity against Plasmodium falciparum 3D7 incubated for 72 hrs by SYBR Green1 by fluorometric assay; assay type: functional, organism-based; details: 3D7, 72 h
Plasmodium falciparum [29] = assay: Antiplasmodial activity against Plasmodium falciparum Dd2 incubated for 72 hrs by SYBR Green1 by fluorometric assay; assay type: functional, organism-based; details: Dd2, 72 h
Schistosoma japonicum [30] = assay: Antischistosomal activity against Schistosoma japonicum assessed as worm mortality at 5 ug/ml incubated for 72 hrs by microscopic method relative to control; assay type: functional; details: dose 5 µg/ml
Schistosoma mansoni [31] = assay: Antischistosomal activity against male Schistosoma mansoni LE incubated for 24 hrs by MTT assay; assay type: functional
Schistosoma mansoni [32] = assay: Antischistosomal activity against female Schistosoma mansoni LE incubated for 24 hrs by MTT assay; assay type: functional
CHO-K1 = assay: Cytotoxicity against CHO-K1 cells incubated for 24 hrs by colorimetric assay; assay type: functional, cell-based; details: Cricetulus griseus, CHO-K1, 24 h

## NC(=O)c1nc(-c2ccc(C(F)(F)F)c(F)c2)cnc1Nc1cnc(OCCCN2CCCCC2)nc1
Schistosoma mansoni [1]
  Activity: 37.6%

## N#Cc1c(C(F)(F)F)cc(NCc2ccccc2F)n2c1nc1cc(Cl)c(Cl)cc12
Schistosoma japonicum [2]
  Activity: <1%
[3]
  Cmax: 300 nM
[4]
  t1/2: 18 min
Schistosoma mansoni [5]
  IC50: 0.38 µM
Schistosoma mansoni [6]
  Activity: 69%
[7]
  bioavailability: < 1%
[8]
  Vd: 0.18 L/kg

## COc1ccc(-c2cs/c(=N/N=C/CN3C(=O)c4ccccc4C3=O)[nH]2)cc1
Schistosoma mansoni [9]
  Activity: 100%
Schistosoma mansoni [10]
  mortality at 100 µg/mL: 60%

## O=C1c2ccccc2C(=O)N1C/C=N/N=c1\[nH]c(-c2ccccc2)cs1
Schistosoma mansoni [11]
  EC50: 37.5 µM
Schistosoma mansoni [12]
  EC50: 5.15 µM
Schistosoma mansoni [13]
  mortality at 100 µg/mL: 100%

## COc1cc(OC)c(/C=C2\NC(=O)N(Cc3c(F)cccc3Cl)C2=S)c(OC)c1
Schistosoma mansoni [14]
  Activity: 100%
Schistosoma mansoni [15]
  Activity: 100%

## CC1(C)CCC[C@]2(C)C(CC[C@@](C)(O)/C=C/c3ccc(F)cc3)[C@](C)(O)CC[C@@H]12 (stereo partly drawn)
Schistosoma mansoni [16]
  IC50: < 2 µM
Schistosoma mansoni [17]
  IC50: < 2 µM
Schistosoma mansoni [18]
  IC50: 9.4 µM
Schistosoma mansoni [19]
  IC50: < 2 µM

## CC(C)c1cc2c(cc1O)C(=O)C[C@H]1C(C)(C)CCC[C@]21C
Schistosoma mansoni [20]
  LC50: 19.1 µM

## Brc1ccc(-c2c[nH]c(-c3ccccn3)n2)cc1
Schistosoma mansoni [21]
  Activity: 35%
Schistosoma mansoni [22]
  Activity: 29%
Schistosoma mansoni [23]
  Activity: 0%
Schistosoma mansoni [24]
  Activity: 96%
Schistosoma mansoni [25]
  Activity: 100%
Schistosoma mansoni [26]
  Activity: 56%
Schistosoma mansoni [27]
  Activity: 83%

## CCCCNCC(O)Cn1c2ccc(Cl)cc2c2cc(Cl)ccc21 (stereo not drawn)
Plasmodium falciparum [28]
  IC50: 0.274 µM
Plasmodium falciparum [29]
  IC50: 0.047 µM
Schistosoma japonicum [30]
  Activity: 100%

## C=CC(C)(C)c1cc(/C=C/C(=O)c2ccc(O)cc2)c(OC)cc1O [LICOAGROCHACONE A]
Schistosoma mansoni [31]
  LC50: 9.52 µM
Schistosoma mansoni [32]
  LC50: 9.12 µM
CHO-K1
  IC50: 508 µM
